# Legend:
# ERα = target: T1, ERα (Homo sapiens, UniProt P03372); details: yeast AH109 two-hybrid
# T1 sequence (P03372 1-536): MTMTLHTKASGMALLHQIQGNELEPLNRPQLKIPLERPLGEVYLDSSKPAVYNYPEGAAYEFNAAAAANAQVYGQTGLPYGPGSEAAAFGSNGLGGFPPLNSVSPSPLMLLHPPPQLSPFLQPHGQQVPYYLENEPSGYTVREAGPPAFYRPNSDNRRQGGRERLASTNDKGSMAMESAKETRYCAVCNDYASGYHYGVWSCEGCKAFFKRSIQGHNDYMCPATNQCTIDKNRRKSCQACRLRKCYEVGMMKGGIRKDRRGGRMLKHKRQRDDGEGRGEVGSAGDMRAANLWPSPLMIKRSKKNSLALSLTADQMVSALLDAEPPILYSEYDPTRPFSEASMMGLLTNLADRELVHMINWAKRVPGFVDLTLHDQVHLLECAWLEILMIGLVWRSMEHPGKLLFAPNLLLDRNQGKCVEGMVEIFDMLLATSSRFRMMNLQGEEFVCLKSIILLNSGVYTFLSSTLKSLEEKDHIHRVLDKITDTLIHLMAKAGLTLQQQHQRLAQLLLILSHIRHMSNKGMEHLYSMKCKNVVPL
# T1 sequence (Q13330 1-429 isoform Q13330-2 partner limits assumed): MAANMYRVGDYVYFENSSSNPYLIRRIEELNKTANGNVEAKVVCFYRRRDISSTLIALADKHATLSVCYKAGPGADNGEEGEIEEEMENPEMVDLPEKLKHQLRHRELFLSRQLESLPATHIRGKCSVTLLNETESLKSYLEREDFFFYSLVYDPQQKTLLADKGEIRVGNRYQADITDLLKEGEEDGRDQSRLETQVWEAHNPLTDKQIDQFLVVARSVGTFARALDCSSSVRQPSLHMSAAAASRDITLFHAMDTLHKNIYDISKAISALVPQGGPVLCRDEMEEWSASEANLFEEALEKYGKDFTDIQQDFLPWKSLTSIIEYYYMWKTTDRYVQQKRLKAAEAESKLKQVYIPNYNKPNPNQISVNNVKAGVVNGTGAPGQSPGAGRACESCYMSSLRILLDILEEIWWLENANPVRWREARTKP
# ZR-75R cells = test: Growth of ZR-75R cells in monolayer culture; type: cell-based, human
# From the text: FIGS. 11A-11E. MTA1s may stimulate aggressive phenotypes in breast cancer cells. FIG. 11A illustrates an example of MTA1s overexpression inhibiting PRE-driven but not RARE-driven transcription. FIG. […] illustrates the Growth-rate of ZR/pcDNA or ZR/MTA1s cells in monolayer culture in the presence of E2 alone or with ICI 182780 (10^−9 M for 4 days). FIG. 11C show an exemplary effect of MTA1s expression on anchorage independent growth of ZR/pcDNA and ZR/MTA1s cells grown in 10% serum in the presence or absence of ICI 182780 (10^−9 M) or 4HT (10^−8 M) for 14 days. […] FIG. 11E illustrates that MTA1s may induce tumorigenesis of breast cancer cells. 5×10^6 cells were subcutaneously inoculated in the athymic nude mice (n=10), and tumor volumes at day 21 were recorded.
# ER = test: Confocal localization of ER in ZR-75R clones after estradiol; type: cell-based, human
# Protocol: FIGS. 3A-3H. MTA1s typically localizes in the cytoplasm and interacts with ER. FIG. 3A illustrates an example of confocal microscopy of MCF-7 cells transiently transfected with T7-tagged MTA1 or MTA1s constructs. FIG. 3B illustrates exemplary expression of T7-MTA1s in ZR75 clones. FIG. 3C illustrates exemplary nuclear and cytoplasmic fractions that were assessed by immunoblotting with the indicated antibodies. […] FIG. 3F illustrates exemplary GST pull-down assays. […] FIG. 3H illustrates an example of expression of MTA1s and ERα in indicated cells by confocal microscopy.
# The cellular localization of T7-MTA1s, and ER was determined using indirect immunofluorescence as described in Mazumdar et al., 2001, herein incorporated by reference. Cells were treated with or without anti-T7 mAb or ER Ab followed by 546-Alexa-labeled goat anti-mouse Ab or 488-Alexa.
# [1] = system: PRE-mediated transcription; test: PRE-mediated transcription in ZR-75R cells; type: cell-based, human; details: MTA1s-overexpressing ZR-75R cells
# Protocol: Transfection was performed using a Fugene-6 kit (Roche Biochemical, New Jersey) as per the manufacturer's instructions. Cells were transiently cotransfected with a reporter construct and (β-galactosidase, and assayed for luciferase activity as described.
structure (smiles),measurement,setting,value
C[C@]12CC[C@@H]3c4ccc(O)cc4C[C@@H](CCCCCCCCC[S+]([O-])CCCC(F)(F)C(F)(F)F)[C@H]3[C@@H]1CC[C@@H]2O (stereo partly drawn) [ICI 182780],effect on interaction between ERα and MTA1s,ERα,failed to block
"C[C@]12CC[C@@H]3c4ccc(O)cc4CC[C@H]3[C@@H]1CC[C@@H]2O [estradiol, 17β-estradiol]",cell growth response,ZR-75R cells; ZR-75R cells expressing MTA1s,did not respond
same,cell growth,ZR-75R cells; ZR-75R cells expressing control vector,stimulated
same,redistribution of ER to the nucleus,ER; ZR-75R/vector cells,rapidly redistributed the ER to the nucleus
same,cells in which ER was not redistributed to the nucleus,ER; estradiol-activated ZR-75R/MTA1s cells,over 90%
CC(=O)[C@H]1CC[C@H]2[C@@H]3CCC4=CC(=O)CC[C@]4(C)[C@H]3CC[C@]12C [progesterone],stimulation of PRE-mediated transcription,[1],failed to stimulate

# From US20060204957A1, “Mta1s, a steriod hormone receptor corepressor” (priority 2002, published 2006)
